SMILES strings stand for the structures. In brackets after ≈: the same amount, converted by molar mass. Like-named read-outs stand apart in the source and are kept apart here.

These results are taken from US20220249447A1, “CF3-, OCF3-, SCF3-, and SF5-Containing Antibacterial Agents” (Purdue Research Foundation, priority 2019, published 2022).

The subject of experiment [1] is C. difficile NR-32904 (P30). The experiment can be described thus: MIC against C. difficile NR-32904 (P30). The experiment is classed as cell-based. Here is the method:
(§1) Bacteria were cultured in cation-adjusted Mueller Hinton Broth (for strains in Tables 1-3) or Brain Heart Infusion broth (for Enterococcus faecium) or Tryptic Soy Broth (all other bacteria) in a 96-well plate at 37° C. for at least 20 hours. The MIC was classified as the lowest concentration where no visual growth of bacteria was observed. The minimum bactericidal concentration (MBC) was tested by spotting 4 μL from wells with no growth onto Tryptic Soy Agar (TSA) plates. Plates were incubated at 37° C. for at least 18 hours before recording the MBC.

The subject of experiment [2] is Neisseria gonorrhea strain 181. Kind of experiment: MIC against Neisseria gonorrhea strain 181. Type of experiment: cell-based. Here is the method:
as §1

The test system of experiment [3] is C. difficile ATCC 43255. The experiment can be described thus: MIC against C. difficile ATCC 43255. The experiment is classed as cell-based. Here is the method:
as §1

Experiment [4] concerns MRSA ATCC 33592. The experiment can be described thus: MIC, broth microdilution, MRSA ATCC 33592. The following applies: Staphylococcus aureus. Type of experiment: cell-based, methicillin-resistant S. aureus. Here is the method:
All MRSA isolates were acquired from BEI Resources. The remaining bacteria were purchased from the American Type Culture Collection (ATCC).
as §1
Background: In broth dilution the organism is exposed to a series of concentrations in liquid medium.

Experiment [5] has as its system C. difficile NR-13432 (isolate 6). The experiment can be described thus: MIC against C. difficile NR-13432 (isolate 6). Type of experiment: cell-based. How it is done: as §1
For experiment [6], the system named is E. faecalis ATCC 29212. The experiment can be described thus: MIC, broth microdilution, E. faecalis ATCC 29212. Type of experiment: cell-based. To be noted: Enterococcus faecalis, ATCC29212. Here is the method: as §1
Experiment [7] deals with C. difficile ATCC BAA 1801. Kind of experiment: MIC against C. difficile ATCC BAA 1801. Type of experiment: cell-based. How it is done: as §1
Experiment [8] relates to VRE ATCC 51575. The experiment can be described thus: MIC, broth microdilution, VRE ATCC 51575. The experiment is classed as cell-based. The following applies: Enterococcus. How it is done:
as §1

In experiment [9] the test system is L. monocytogenes ATCC 19115. The experiment can be described thus: MIC, broth microdilution, L. monocytogenes ATCC 19115. The following applies: Listeria monocytogenes, ATCC19115. Type of experiment: cell-based. Here is the method:
as §1

Experiment [10] has as its system C. difficile NR-32895 (P19). The experiment can be described thus: MIC against C. difficile NR-32895 (P19). Type of experiment: cell-based. How it is done:
as §1

The test system of experiment [11] is C. difficile NR-32891 (P13). Kind of experiment: MIC against C. difficile NR-32891 (P13). The experiment is classed as cell-based. How it is done: as §1
For experiment [12], the system named is C. difficile NR-32883 (P2). Kind of experiment: MIC against C. difficile NR-32883 (P2). The experiment is classed as cell-based. Here is the method: as §1
The subject of experiment [13] is C. difficile NR-13435 (isolate 9). Kind of experiment: MIC against C. difficile NR-13435 (isolate 9). Type of experiment: cell-based. How it is done: as §1
For experiment [14], the system named is S. aureus. The experiment can be described thus: MIC, broth microdilution, S. aureus. The experiment is classed as cell-based. The following applies: Staphylococcus aureus. How it is done:
as §1

Experiment [15] concerns MRSA USA300 cells. The experiment can be described thus: Time-kill assay. Type of experiment: cell-based. How it is done: The time-kill analysis was performed as previously described^29. […] Aliquots (100 μL) were collected from each treatment after 0, 2, 4, 8, 12, and 24 hours of incubation at 37° C. and subsequently serially diluted in phosphate-buffered saline (PBS). Bacteria were then transferred to TSA plates and incubated at 37° C. for 18-20 hours before viable CFU/mL was determined (see FIG. 2).

The mark [16] stands for this setting: Clostridioides difficile; read-out: MIC C. difficile NR-32904 (P30).
Setting [17] is: Clostridioides difficile, ATCC43255; read-out: MIC C. difficile ATCC 43255.
Setting [18] is: Clostridioides difficile; read-out: MIC C. difficile NR-13432 (isolate 6).
[19] abbreviates: Clostridioides difficile, BAA1801; read-out: MIC C. difficile ATCC BAA 1801.
The mark [20] stands for this setting: Clostridioides difficile; read-out: MIC C. difficile NR-32895 (P19).
[21] abbreviates: Clostridioides difficile; read-out: MIC C. difficile NR-32891 (P13).
The mark [22] stands for this setting: Clostridioides difficile; read-out: MIC C. difficile NR-32883 (P2).
Where [23] appears, read: Clostridioides difficile; read-out: MIC C. difficile NR-13435 (isolate 9).

On to `O=C(Nc1nnc(-c2cc(Cl)cc(Cl)c2)o1)c1ccc(SC(F)(F)F)cc1` [HSGN-218, N-(5-(3,5-dichlorophenyl)-1,3,4-oxadiazol-2-yl)-4-((trifluoromethyl)thio)benzamide], for which the MIC in experiment [1] (setting [16]) was found to be 0.007 µg/mL (≈ 0.0161 µM); in [2] it was 0.125 µg/mL (≈ 0.288 µM); in experiment [3] (setting [17]), 0.015 µg/mL (≈ 0.0345 µM); in experiment [4], 0.0625 µg/mL (≈ 0.144 µM); in [5] (setting [18]) it was 0.03 µg/mL (≈ 0.0691 µM); in [6] it was 0.25 µg/mL (≈ 0.576 µM). The MIC in [7] (setting [19]) turned out to be 0.03 µg/mL (≈ 0.0691 µM); in experiment [8], 0.25 µg/mL (≈ 0.576 µM); in experiment [9] it was 0.125 µg/mL (≈ 0.288 µM); in experiment [10] (setting [20]) it was 0.007 µg/mL (≈ 0.0161 µM); in experiment [11] (setting [21]), 0.007 µg/mL (≈ 0.0161 µM); in experiment [12] (setting [22]), 0.007 µg/mL (≈ 0.0161 µM). Moreover, the figures for the MIC in experiment [13] (setting [23]) and in [14] were 0.003 µg/mL (≈ 0.00691 µM) and 0.0625 µg/mL (≈ 0.144 µM), respectively.
Turning to `O=C(Nc1nnc(-c2cccc(Cl)c2)o1)c1ccc(SC(F)(F)F)cc1` [HSGN-204, N-(5-(3-chlorophenyl)-1,3,4-oxadiazol-2-yl)-4-((trifluoromethyl)thio)benzamide], the MIC in experiment [1] (setting [16]) was 0.015 µg/mL (≈ 0.0375 µM); in [2] it was 0.25 µg/mL (≈ 0.625 µM); in experiment [3] (setting [17]) it was 0.003 µg/mL (≈ 0.0075 µM); in [4] it was 0.125 µg/mL (≈ 0.313 µM); in experiment [5] (setting [18]) it was 0.03 µg/mL (≈ 0.075 µM); in experiment [6], 0.25 µg/mL (≈ 0.625 µM). Moreover, the MIC in [7] (setting [19]) was 0.03 µg/mL (≈ 0.075 µM); in experiment [8], 0.25 µg/mL (≈ 0.625 µM); in experiment [9] it was 0.125 µg/mL (≈ 0.313 µM); in [10] (setting [20]) it was 0.007 µg/mL (≈ 0.0175 µM); in experiment [11] (setting [21]), 0.03 µg/mL (≈ 0.075 µM); in experiment [12] (setting [22]), 0.003 µg/mL (≈ 0.0075 µM). For the same molecule, the MIC worked out at 0.007 µg/mL (≈ 0.0175 µM) in [13] (setting [23]) and 0.125 µg/mL (≈ 0.313 µM) in [14].
`O=C(Nc1nnc(-c2ccc(C(F)(F)F)cc2)o1)c1ccc(SC(F)(F)F)cc1` [HSGN-203, N-(5-(4-(trifluoromethyl)phenyl)-1,3,4-oxadiazol-2-yl)-4-((trifluoromethyl)thio)benzamide]: the minimum inhibitory concentration (MIC) in experiment [1] (setting [16]) was 0.125 µg/mL (≈ 0.288 µM); in experiment [2], 0.5 µg/mL (≈ 1.15 µM); in experiment [3] (setting [17]), 0.25 µg/mL (≈ 0.577 µM); in [4], 0.25 µg/mL (≈ 0.577 µM); in experiment [5] (setting [18]), 0.125 µg/mL (≈ 0.288 µM); in experiment [6], 1 µg/mL (≈ 2.31 µM). Also, the MIC in experiment [7] (setting [19]) was determined as 0.125 µg/mL (≈ 0.288 µM); in [8], 0.5 µg/mL (≈ 1.15 µM); in experiment [9], 0.5 µg/mL (≈ 1.15 µM); in [10] (setting [20]) it was 0.06 µg/mL (≈ 0.138 µM); in [11] (setting [21]), 0.125 µg/mL (≈ 0.288 µM); in experiment [12] (setting [22]), 0.06 µg/mL (≈ 0.138 µM). Also, the MIC turned out to be 0.06 µg/mL (≈ 0.138 µM) in experiment [13] (setting [23]) and 0.25 µg/mL (≈ 0.577 µM) in [14].
With `CN[C@H](CC(C)C)C(=O)N[C@H]1C(=O)N[C@@H](CC(N)=O)C(=O)N[C@H]2C(=O)N[C@H]3C(=O)N[C@H](C(=O)N[C@H](C(=O)O)c4cc(O)cc(O)c4-c4cc3ccc4O)[C@H](O)c3ccc(c(Cl)c3)Oc3cc2cc(c3O[C@@H]2O[C@H](CO)[C@@H](O)[C@H](O)[C@H]2O[C@H]2C[C@](C)(N)[C@H](O)[C@H](C)O2)Oc2ccc(cc2Cl)[C@H]1O` [Vancomycin, reference compound], the MIC was 1 µg/mL (≈ 0.69 µM) in experiment [1] (Clostridioides difficile, read-out: MIC C. difficile NR-32904 (P30)); 1 µg/mL (≈ 0.69 µM) in experiment [3] (Clostridioides difficile, ATCC43255, read-out: MIC C. difficile ATCC 43255); 0.25 µg/mL (≈ 0.173 µM) in experiment [5] (Clostridioides difficile, read-out: MIC C. difficile NR-13432 (isolate 6)); 1 µg/mL (≈ 0.69 µM) in [7] (Clostridioides difficile, BAA1801, read-out: MIC C. difficile ATCC BAA 1801); 1 µg/mL (≈ 0.69 µM) in [10] (Clostridioides difficile, read-out: MIC C. difficile NR-32895 (P19)); 0.5 µg/mL (≈ 0.345 µM) in experiment [11] (Clostridioides difficile, read-out: MIC C. difficile NR-32891 (P13)). Moreover, the MIC in experiment [12] (Clostridioides difficile, read-out: MIC C. difficile NR-32883 (P2)) is 0.5 µg/mL (≈ 0.345 µM); in [13] (Clostridioides difficile, read-out: MIC C. difficile NR-13435 (isolate 9)) it was 1 µg/mL (≈ 0.69 µM). The Bactericidal/Bacteriostatic entry in experiment [15] is reported as “Bactericidal”.
For `O=C(Nc1nnc(-c2cccs2)o1)c1ccc(S(=O)(=O)C(F)(F)F)cc1` [HSGN-103], the “MIC C. difficile NR-32904 (P30)” value in experiment [1] was 0.5 µg/mL (≈ 1.24 µM). For the same molecule, the Bactericidal/Bacteriostatic result in experiment [15] is recorded as “Bacteriostatic”. Further, the “Δlog2 CFU/mL” value in experiment [15] (MRSA USA300, 3× MIC or 6× MIC, up to 24 hours) came out at 1.04. Besides, the “MIC C. difficile ATCC 43255” value in experiment [3] turned out to be 0.5 µg/mL (≈ 1.24 µM). Further, the “MIC C. difficile NR-13432 (isolate 6)” value in experiment [5] was 0.5 µg/mL (≈ 1.24 µM). For the same molecule, the “MIC C. difficile ATCC BAA 1801” value in experiment [7] was 0.5 µg/mL (≈ 1.24 µM). Also, the “MIC C. difficile NR-32895 (P19)” value in experiment [10] stood at 0.5 µg/mL (≈ 1.24 µM). Further, the “MIC C. difficile NR-32891 (P13)” value in experiment [11] was 0.5 µg/mL (≈ 1.24 µM). Besides, the “MIC C. difficile NR-32883 (P2)” value in experiment [12] was found to be 0.5 µg/mL (≈ 1.24 µM). The “MIC C. difficile NR-13435 (isolate 9)” value in [13] was determined as 0.5 µg/mL (≈ 1.24 µM).

The MIC is the least concentration at which growth counts as inhibited.
